The text below walks through data of patent US6956034B2, “Oxazin(ethyl)one compounds used as fungicides” (BASF Aktiengesellschaft, priority 2001, dated 2005).

Assay [1] relates to mildew of cucumbers (Sphaerotheca fuliginea). Put plainly: Protective activity against mildew of cucumbers. The conditions noted are these: cucumber seedlings; for percentage of infection of leaves at the prescribed concentration of active compound: sprayed 20 h before inoculation, 7 days, untreated 90. It is filed as in vivo. As for the experimental part:
The active compounds were used as aqueous preparations of active compounds which contained the active compound in a concentration of 250 ppm, 63 ppm, 16 ppm and 4 ppm, respectively. The aqueous preparation of active compound was prepared by diluting a stock solution of 10% by weight of active compound, 63% by weight of cyclohexanone and 27% by weight of emulsifier (20 parts by weight of Nekanil® LN (Lutensol® AP6, wetting agent having emulsifying and dispersing action based on ethoxylated alkylphenols) and 10 parts by weight of Wettol® EM (nonionic emulsifier based on ethoxylated castor oil)) with water in the amount required for the desired concentration.
Leaves of cucumber seedlings of the cultivar “Chinesische Schlange” which had been grown in pots were, at the cotyledon stage, sprayed to runoff point with an aqueous preparation of active compound. 20 hours after the spray coating had dried on, the plants were inoculated with an aqueous spore suspension of mildew of cucumbers (Sphaerotheca fuliginea). The plants were then cultivated in a greenhouse at 20-24° C. and 60-80% relative atmospheric humidity for 7 days. The extent of the mildew development was then determined visually in % infection of the cotyledon area.

Assay [2] relates to mildew of wheat (Erysiphe [syn. Blumeria] graminis forma specialis tritici). Put plainly: Protective activity against mildew of wheat. Conditions: wheat seedlings, sprayed 24 h before inoculation, 7 days, untreated 85. It counts as in vivo. The protocol:
The active compounds were used as aqueous preparations of active compounds which contained the active compound in a concentration of 250 ppm, 63 ppm, 16 ppm and 4 ppm, respectively. The aqueous preparation of active compound was prepared by diluting a stock solution of 10% by weight of active compound, 63% by weight of cyclohexanone and 27% by weight of emulsifier (20 parts by weight of Nekanil® LN (Lutensol® AP6, wetting agent having emulsifying and dispersing action based on ethoxylated alkylphenols) and 10 parts by weight of Wettol® EM (nonionic emulsifier based on ethoxylated castor oil)) with water in the amount required for the desired concentration. The first fully developed leaves of the wheat seedlings of the variety “Kanzler” which had been grown in pots were sprayed to runoff point with an aqueous preparation of active compound prepared from a stock solution containing 10% of active compound, […]. 24 hours after the spray coating had dried on, the plants were inoculated with an aqueous spore suspension of mildew of wheat (Erysiphe [syn. Blumeria] graminis forma specialis. tritici). The plants were then cultivated in a greenhouse at 20-24° C. and 60-90% relative atmospheric humidity. After 7 days the extent of the mildew development was determined visually in % infection of the leaves.

`CCCn1c(=NOC)oc2ccc(Cl)cc2c1=O` [Compound I - A1.2, O-Methyl (6-chloro-3-propyl-4H-1,3-benz[e]oxazin-4(3H)-one)-2-oxime]: the “infection of the cotyledon area” value in assay [1] (4 ppm, untreated plants 90% infected) is listed as “no infection”.
Regarding `CCCn1c(=NOC)oc2ccc(Cl)cc2c1=O` [I - A1.2], the “percentage of infection of leaves at the prescribed concentration of active compound” value (from here on “percentage of infection of leaves”) in assay [2] (16 ppm), in assay [2] (63 ppm), in assay [2] (250 ppm), in assay [1] (16 ppm), in assay [1] (63 ppm) and in assay [1] (250 ppm) was 0% in each case.
Take `CCCn1c(=NOC)oc2ccc(I)cc2c1=O` [I - A1.4]: the “percentage of infection of leaves” value in assay [2] (16 ppm), in assay [2] (63 ppm), in assay [2] (250 ppm), in assay [1] (16 ppm), in assay [1] (63 ppm) and in assay [1] (250 ppm) was 0% throughout.
As for `CCCn1c(=NOCC)oc2ccc(I)cc2c1=O` [I - A1.8], the “percentage of infection of leaves” value in assay [2] (16 ppm), in assay [2] (63 ppm), in assay [2] (250 ppm), in assay [1] (16 ppm), in assay [1] (63 ppm) and in assay [1] (250 ppm) was 0% throughout.
`CCCON=c1oc2ccc(I)cc2c(=O)n1CCC` [I - A1.12]: the “percentage of infection of leaves” value in assay [2] (16 ppm), in assay [2] (63 ppm), in assay [2] (250 ppm), in assay [1] (16 ppm), in assay [1] (63 ppm) and in assay [1] (250 ppm) was 0% in each case.
Take `CCCCn1c(=NOC)oc2ccc(I)cc2c1=O` [I - A1.20]: the “percentage of infection of leaves” value in assay [2] (16 ppm), in assay [2] (63 ppm), in assay [2] (250 ppm), in assay [1] (16 ppm), in assay [1] (63 ppm) and in assay [1] (250 ppm) was 0% each time.
With `CCCCn1c(=NOCC)oc2ccc(I)cc2c1=O` [I - A1.24], the “percentage of infection of leaves” value in assay [2] (16 ppm), in assay [2] (63 ppm), in assay [2] (250 ppm), in assay [1] (16 ppm), in assay [1] (63 ppm) and in assay [1] (250 ppm) was 0% throughout.
Regarding `CCCCn1c(=NOCCC)oc2ccc(I)cc2c1=O` [I - A1.28], the “percentage of infection of leaves” value in assay [2] (16 ppm), in assay [2] (63 ppm), in assay [2] (250 ppm), in assay [1] (16 ppm), in assay [1] (63 ppm) and in assay [1] (250 ppm) was 0% throughout.
Consider `CON=c1oc2ccc(I)cc2c(=O)n1CC1CC1` [I - A1.68], for which the “percentage of infection of leaves” value in assay [2] (16 ppm), in assay [2] (63 ppm), in assay [2] (250 ppm), in assay [1] (16 ppm), in assay [1] (63 ppm) and in assay [1] (250 ppm) was 0% throughout.
In the case of `CCON=c1oc2ccc(I)cc2c(=O)n1CC1CC1` [I - A1.72], the “percentage of infection of leaves” value in assay [2] (16 ppm), in assay [2] (63 ppm), in assay [2] (250 ppm), in assay [1] (16 ppm), in assay [1] (63 ppm) and in assay [1] (250 ppm) was 0% in each case.
Consider `CCCON=c1oc2ccc(I)cc2c(=O)n1CC1CC1` [I - A1.76], for which the “percentage of infection of leaves” value in assay [2] (16 ppm), in assay [2] (63 ppm), in assay [2] (250 ppm), in assay [1] (16 ppm), in assay [1] (63 ppm) and in assay [1] (250 ppm) was 0% in each case.
For `CCCn1c(=NOC)oc2ccc(C)cc2c1=O` [I - A1.132], the “percentage of infection of leaves” value in assay [1] (16 ppm) was determined as 10%; in assay [1] (63 ppm) it was 10%; in assay [1] (250 ppm), 0%.
Consider `CCCn1c(=NOC)oc2ccc(OC)cc2c1=O` [I - A1.133], for which the “percentage of infection of leaves” value in assay [2] (16 ppm) was 20%; in assay [2] (63 ppm), 0%; in assay [2] (250 ppm) it was 0%; in assay [1] (16 ppm), 10%; in assay [1] (63 ppm) it was 5%; in assay [1] (250 ppm), 0%.
For `CC(C)ON=c1oc2ccc(I)cc2c(=O)n1CC1CC1` [I - A1.134], the “percentage of infection of leaves” value in assay [2] (16 ppm), in assay [2] (63 ppm), in assay [2] (250 ppm), in assay [1] (16 ppm), in assay [1] (63 ppm) and in assay [1] (250 ppm) was 0% each time.
`O=c1c2cc(I)ccc2oc(=NOCC2CC2)n1CC1CC1` [I - A1.135]: the “percentage of infection of leaves” value is listed as 5% in assay [2] (16 ppm); 0% in assay [2] (63 ppm); 0% in assay [2] (250 ppm); 3% in assay [1] (16 ppm); 0% in assay [1] (63 ppm); 0% in assay [1] (250 ppm).
